Values of other authors, collected in patent US20120178700A1, “PEPTIDOMIMETIC MACROCYCLES” (Aileron Therapeutics, Inc., priority 2008, published 2012).
Values belong to the compound of their own block, whether it stands above or below them.

Columns and labels:
[1] = target: c-Myc/Max dimerization (Homo sapiens, UniProt P01106); conditions: for preference for inhibition of c-Myc/Max association over related transcription factors: in the presence of their DNA binding motif in vitro
[2] = tested on: Myc family proteins
[3] = tested on: c-Myc-dependent oncogenic transformation; conditions: versus transformation dependent on Jun

c-Myc/Max dimerization, sequence (P01106 whole entry): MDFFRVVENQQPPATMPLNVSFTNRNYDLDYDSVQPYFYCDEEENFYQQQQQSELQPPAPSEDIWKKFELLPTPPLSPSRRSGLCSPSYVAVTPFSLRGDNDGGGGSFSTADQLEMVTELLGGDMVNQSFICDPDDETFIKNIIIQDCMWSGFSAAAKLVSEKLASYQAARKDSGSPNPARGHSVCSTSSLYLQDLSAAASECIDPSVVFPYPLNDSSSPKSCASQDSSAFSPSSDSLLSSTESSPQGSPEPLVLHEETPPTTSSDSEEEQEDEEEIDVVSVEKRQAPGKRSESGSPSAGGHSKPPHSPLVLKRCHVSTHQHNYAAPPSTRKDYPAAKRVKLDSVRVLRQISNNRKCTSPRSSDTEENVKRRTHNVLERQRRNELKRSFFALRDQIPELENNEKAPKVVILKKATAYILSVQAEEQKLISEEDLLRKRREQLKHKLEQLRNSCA

- preference for inhibition of c-Myc/Max association over related transcription factors [1]: show a preference
Structure (SMILES): O=C(NCc1cccs1)c1cc2nc(-c3cccs3)cc(C(F)(F)F)n2n1 [Mycro2]

- preference for inhibition of c-Myc/Max association over related transcription factors [1]: show a preference
Structure (SMILES): COc1ccc(CNC(=O)c2cc3nc(-c4cccs4)cc(C(F)(F)F)n3n2)cc1 [Mycro1]

- c-Myc/Max dimerization [1]: without interfering
- inhibition of DNA binding of Myc family proteins [2]: inhibit DNA binding
Structure (SMILES): CN(C)CCCNc1cc(O)c2c(c1O)C(=O)c1ccccc1C2=O [MYRA-A]

Structure (SMILES): COc1ccc(CN(C(=O)c2ccccn2)C(C(=O)NC2CCCCC2)c2ccc3cc(OCC(=O)OC(C)(C)C)ccc3c2)cc1 (centres unmarked) [NY2267]
- inhibition of c-Myc-dependent oncogenic transformation [3]: inhibited c-Myc-dependent oncogenic transformation with preference over transformation dependent on Jun
